Assay results from the Deep4Chem optical property database.
Where “and” joins values, the source holds several entries; their conditions need not be identical. Identical values can stand only once.

Assay: photoluminescence quantum yield (fraction); solvent given as SMILES

Compound: N#Cc1ccc2nc3[nH]c(=O)[nH]c(=O)c3nc2c1
- photoluminescence quantum yield (in ClCCCl): 0.022

Compound: O=S1(=O)C(c2cccs2)=C(c2cccs2)c2ccccc21
- photoluminescence quantum yield (in C1CCOC1): 0.006

Compound: CCCC1=C(CCC)c2cccc3c2c(cc2nc4ccccc4nc23)O1
- photoluminescence quantum yield (in ClCCl): 0.52

Compound: COc1ccc(-c2ccc(-c3ccc(OC)cc3)cc2)cc1
- photoluminescence quantum yield (in C1CCCCC1): 0.64

Compound: COc1ccc(C#Cc2cc3ccccc3oc2=O)cc1
- photoluminescence quantum yield (in CC#N): 0.55

Compound: C(#Cc1cccc2ccccc12)c1ncc(-c2ccccc2)o1
- photoluminescence quantum yield (in ClCCl): 0.28

Compound: CC1=C(C#Cc2ccc(N(c3ccccc3)c3ccccc3)cc2)C(C)=[N+]2C1=C(c1ccccc1)c1c(C)c(C#Cc3ccc(N(c4ccccc4)c4ccccc4)cc3)c(C)n1[B-]2(F)F
- photoluminescence quantum yield (in C1CCOC1): 0.31

Compound: F[B-]1(F)n2c(ccc2-c2cccs2)C(C(F)(F)F)=C2C=CC(c3cccs3)=[N+]21
- photoluminescence quantum yield (in CCCCCC): 1

Compound: CN(C)c1ccc(C(=O)Nc2cccc(Cl)c2)cc1
- photoluminescence quantum yield (in C1CCCCC1): 0.0031
- photoluminescence quantum yield (in C1CCOC1): 0.0263
- photoluminescence quantum yield (in CC#N): 0.0319
- photoluminescence quantum yield (in CCOCC): 0.0103

Compound: CCCCC1(c2ccccc2)Nc2c(-c3ccc(OC)cc3)ccc(-c3ccc(OC)cc3)c2N=C1c1ccccc1 (configuration not stated)
- photoluminescence quantum yield (in ClC(Cl)Cl): 0.45

Compound: O=C1/C(=C\c2ccc3oc4ccccc4c3c2)S(=O)(=O)c2ccccc21
- photoluminescence quantum yield (in C1CCOC1): 0.037
- photoluminescence quantum yield (in C1COCCO1): 0.047
- photoluminescence quantum yield (in CC#N): 0.041
- photoluminescence quantum yield (in CC(C)=O): 0.055
- photoluminescence quantum yield (in CCOC(C)=O): 0.048
- photoluminescence quantum yield (in CN(C)C=O): 0.192
- photoluminescence quantum yield (in CO): 0.025
- photoluminescence quantum yield (in CS(C)=O): 0.209
- photoluminescence quantum yield (in Cc1ccccc1): 0.116
- photoluminescence quantum yield (in ClC(Cl)Cl): 0.036
- photoluminescence quantum yield (in ClCCl): 0.092

Compound: CCC1(CC)c2ccccc2-c2c1c1c(c3c2C(CC)(CC)c2cc(/C=C/c4cccs4)ccc2-3)C(CC)(CC)c2cc(/C=C/c3cccs3)ccc2-1
- photoluminescence quantum yield (in C1CCOC1): 0.16

Compound: c1cc2ccc1-c1ccc(cc1)-c1ccc(s1)-c1ccc(cc1)-c1ccc(cc1)-c1ccc(s1)-c1ccc(cc1)-c1ccc(cc1)-c1ccc(s1)-c1ccc(cc1)-c1ccc(cc1)-c1ccc-2s1
- photoluminescence quantum yield (in C1CCOC1): 0.37

Compound: COc1cc(-c2ncc(-c3ccncc3)o2)cc(OC)c1OC
- photoluminescence quantum yield (in ClCCl): 0.54

Compound: COc1ccc(/C=C/C2=[O+][B-](F)(F)OC(/C=C/c3ccc(OC)cc3)=C2c2ccccc2)cc1
- photoluminescence quantum yield (in CC#N): 0.42
- photoluminescence quantum yield (in CC(C)=O): 0.41
- photoluminescence quantum yield (in CCOC(C)=O): 0.34
- photoluminescence quantum yield (in CCOCC): 0.27
- photoluminescence quantum yield (in ClC(Cl)(Cl)Cl): 0.24
- photoluminescence quantum yield (in ClCCl): 0.41

Compound: COc1ccc(C2=C(C)C3=C(c4c(-c5ccccn5)nc5ccccn45)c4c(C)cc(C)n4[B-](F)(F)[N+]3=C2C)cc1
- photoluminescence quantum yield (in ClCCl): 0.212

Compound: N#Cc1ccc(C#Cc2ccc(C#Cc3ccccc3C#N)cc2C#N)cc1
- photoluminescence quantum yield (in ClC(Cl)Cl): 0.783

Compound: Clc1ccccc1-c1nc2sc3ccccc3c2s1
- photoluminescence quantum yield (in CS(C)=O): 0.48

Compound: Cc1cc(C)c(B(c2cc(C#Cc3ccccc3)sc2-c2sc(C#Cc3ccccc3)cc2P(=O)(c2ccccc2)c2ccccc2)c2c(C)cc(C)cc2C)c(C)c1
- photoluminescence quantum yield (in CO): 0.61

Compound: Cn1ccc(-c2nc3ccccc3nc2/C=C/N2CCCC2)c1
- photoluminescence quantum yield (in C1CCCCC1): 0.184
- photoluminescence quantum yield (in C1CCOC1): 0.495
- photoluminescence quantum yield (in CC#N): 0.33
- photoluminescence quantum yield (in CC(C)=O): 0.414
- photoluminescence quantum yield (in CCO): 0.022
- photoluminescence quantum yield (in CO): 0.006
- photoluminescence quantum yield (in CS(C)=O): 0.325
- photoluminescence quantum yield (in Cc1ccccc1): 0.469
- photoluminescence quantum yield (in ClCCl): 0.611

Compound: c1ccc2ccccc2c1
- photoluminescence quantum yield (in C1CCCCC1): 0.23 and 0.42

Compound: CC(C)(C)c1cc2c3c(c1)c1cc(C(C)(C)C)cc4c1n3B1c3c-2cccc3-c2cc(C(C)(C)C)cc3c5cc(C(C)(C)C)cc-4c5n1c23
- photoluminescence quantum yield (in C1CCOC1): 0.25

Compound: c1ccc2c(c1)c1ccccc1n2-c1ccc2cc(-c3ccc(-c4ccc(-c5cc6ccc(-n7c8ccccc8c8ccccc87)cc6o5)cc4)cc3)oc2c1
- photoluminescence quantum yield (in Cc1ccccc1): 0.96
- photoluminescence quantum yield (in c1ccc2c(c1)c1ccccc1n2-c1ccc(-c2ccc(-n3c4ccccc4c4ccccc43)cc2)cc1): 1

Compound: N#Cc1c(N2CCCC2)cc(-c2ccccc2)c2c1-c1cccc3cccc-2c13
- photoluminescence quantum yield (in O): 0.25

Compound: CN(C)c1ccc(C2=CC3=C(c4ccc(C=O)cc4)[C@H]4c5ccccc5[C@]3(S2)c2ccccc24)cc1
- photoluminescence quantum yield (in ClCCl): 0.46
